Results published in patent US7662832B2, “Pyrrolo[2,3-c]pyridine derivatives and processes for the preparation thereof” (priority 2004, dated 2010).
Where a name gives a salt, the structure may show the parent alone.

Target: Proton Pump (H^+/K^+-ATPase) (Sus scrofa, UniProt P19156)
Assay: Inhibitory effects on proton pump (H^+/K^+-ATPase) activity
Assay type: biochemical
Settings: hog gastric vesicles; K^+ stimulated H^+/K^+-ATPase activity; 30 minutes at 37° C.

Sequence of Proton Pump (H^+/K^+-ATPase) (P19156 2-1034 limits assumed): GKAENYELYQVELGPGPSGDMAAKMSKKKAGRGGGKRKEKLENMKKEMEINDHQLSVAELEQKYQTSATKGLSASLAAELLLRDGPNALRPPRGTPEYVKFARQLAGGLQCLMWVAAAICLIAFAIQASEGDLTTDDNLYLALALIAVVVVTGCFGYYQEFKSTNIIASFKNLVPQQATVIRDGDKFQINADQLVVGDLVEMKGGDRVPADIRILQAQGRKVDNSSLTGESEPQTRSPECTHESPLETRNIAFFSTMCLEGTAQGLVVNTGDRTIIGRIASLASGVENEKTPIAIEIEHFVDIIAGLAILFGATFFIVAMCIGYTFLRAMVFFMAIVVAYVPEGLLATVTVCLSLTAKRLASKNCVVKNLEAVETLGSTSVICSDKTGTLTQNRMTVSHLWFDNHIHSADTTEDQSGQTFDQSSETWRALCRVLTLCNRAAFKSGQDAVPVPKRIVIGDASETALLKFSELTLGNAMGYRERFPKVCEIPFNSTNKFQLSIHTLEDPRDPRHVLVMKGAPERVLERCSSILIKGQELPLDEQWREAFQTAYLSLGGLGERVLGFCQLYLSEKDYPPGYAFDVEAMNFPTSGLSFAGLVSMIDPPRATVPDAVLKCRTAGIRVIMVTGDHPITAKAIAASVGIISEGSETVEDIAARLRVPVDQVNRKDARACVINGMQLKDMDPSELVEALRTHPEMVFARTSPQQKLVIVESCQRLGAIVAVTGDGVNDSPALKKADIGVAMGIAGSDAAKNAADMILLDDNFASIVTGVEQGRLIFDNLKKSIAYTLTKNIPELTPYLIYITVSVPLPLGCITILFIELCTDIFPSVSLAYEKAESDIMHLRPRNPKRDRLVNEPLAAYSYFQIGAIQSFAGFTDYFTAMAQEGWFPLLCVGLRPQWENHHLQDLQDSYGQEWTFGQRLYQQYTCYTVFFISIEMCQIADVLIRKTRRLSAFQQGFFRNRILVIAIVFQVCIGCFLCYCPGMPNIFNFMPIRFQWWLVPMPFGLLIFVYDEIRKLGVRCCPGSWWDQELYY
Sequence of Proton Pump (H^+/K^+-ATPase) (P18434 whole entry partner): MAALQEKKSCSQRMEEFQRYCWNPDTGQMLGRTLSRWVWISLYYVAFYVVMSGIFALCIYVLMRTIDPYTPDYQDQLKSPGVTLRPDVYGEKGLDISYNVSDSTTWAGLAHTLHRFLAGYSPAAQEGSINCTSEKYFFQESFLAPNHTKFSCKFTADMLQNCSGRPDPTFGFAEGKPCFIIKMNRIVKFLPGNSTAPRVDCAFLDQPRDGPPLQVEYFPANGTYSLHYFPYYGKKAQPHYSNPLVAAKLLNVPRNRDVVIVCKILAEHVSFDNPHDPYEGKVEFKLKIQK

Row | Compound | IC50 [nM]
1 | CCn1c(C)c(C)c2ccnc(N3CCc4ccccc4C3C3CC3)c21 (centres unmarked) [Example 569, 1-cyclopropyl-2-(1-ethyl-2,3-dimethyl-1H-pyrrolo[2,3-c]pyridin-7-yl)-1,2,3,4-tetrahydroisoquinoline hydrochloride] | 500
2 | C=CCn1c(C)c(C)c2ccnc(N3CCc4ccccc4C3C3CC3)c21 (centres unmarked) [Example 570, 2-(1-allyl-2,3-dimethyl-1H-pyrrolo[2,3-c]pyridin-7-yl)-1-cyclopropyl-1,2,3,4-tetrahydroisoquinoline hydrochloride] | 120
3 | COCCn1c(C)c(C)c2ccnc(N3CCc4ccccc4C3C3CC3)c21 (centres unmarked) [Example 571, 1-cyclopropyl-2-[1-(2-methoxyethyl)-2,3-dimethyl-1H-pyrrolo[2,3-c]pyridin-7-yl]-1,2,3,4-tetrahydroisoquinoline hydrochloride] | 470
4 | CCC1c2ccccc2CCN1c1nccc2c(C)c(C)[nH]c12 (centres unmarked) [Example 574, 2-(2,3-dimethyl-1H-pyrrolo[2,3-c]pyridin-7-yl)-1-ethyl-1,2,3,4-tetrahydroisoquinoline hydrochloride] | 420
5 | CCC1c2ccccc2CCN1c1nccc2c(C)c(C)n(C)c12 (centres unmarked) [Example 575, 1-ethyl-2-(1,2,3-trimethyl-1H-pyrrolo[2,3-c]pyridin-7-yl)-1,2,3,4-tetrahydroisoquinoline hydrochloride] | 470
6 | CCC1c2ccccc2CCN1c1nccc2c(C)c(C)n(CC)c12 (centres unmarked) [Example 576, 1-ethyl-2-(1-ethyl-2,3-dimethyl-1H-pyrrolo[2,3-c]pyridin-7-yl)-1,2,3,4-tetrahydroisoquinoline hydrochloride] | 220
7 | C=CCn1c(C)c(C)c2ccnc(N3CCc4ccccc4C3CC)c21 (centres unmarked) [Example 577, 2-(1-allyl-2,3-dimethyl-1H-pyrrolo[2,3-c]pyridin-7-yl)-1-ethyl-1,2,3,4-tetrahydroisoquinoline hydrochloride] | 140
8 | CCC1c2ccccc2CCN1c1nccc2c(C)c(C)n(CC=C(C)C)c12 (centres unmarked) [Example 578, 2-[2,3-dimethyl-1-(3-methylbut-2-enyl)-1H-pyrrolo[2,3-c]pyridin-7-yl]-1-ethyl-1,2,3,4-tetrahydroisoquinoline hydrochloride] | 290
9 | CCC1c2ccccc2CCN1c1nccc2c(C)c(C)n(Cc3ccc(OC)cc3)c12 (centres unmarked) [Example 583, 1-ethyl-2-[1-(4-methoxybenzyl)-2,3-dimethyl-1H-pyrrolo[2,3-c]pyridin-7-yl]-1,2,3,4-tetrahydroisoquinoline hydrochloride] | 380
10 | CCC1c2ccccc2CCN1c1nccc2c(C)c(C)n(COC)c12 (centres unmarked) [Example 584, 1-ethyl-2-(1-methoxymethyl-2,3-dimethyl-1H-pyrrolo[2,3-c]pyridin-7-yl)-1,2,3,4-tetrahydroisoquinoline hydrochloride] | 330
11 | CCC1c2ccccc2CCN1c1nccc2c(C)c(C)n(CCOC)c12 (centres unmarked) [Example 585, 1-ethyl-2-[1-(2-methoxyethyl)-2,3-dimethyl-1H-pyrrolo[2,3-c]pyridin-7-yl]-1,2,3,4-tetrahydroisoquinoline hydrochloride] | 370
12 | CCC1c2ccccc2CCN1c1nccc2c(C)c(C)n(Cc3csc(C)n3)c12 (centres unmarked) [Example 586, 1-ethyl-2-[2,3-dimethyl-1-(2-methylthiazol-4-ylmethyl)-1H-pyrrolo[2,3-c]pyridin-7-yl]-1,2,3,4-tetrahydroisoquinoline hydrochloride] | 330
13 | CCc1[nH]c2c(N3CCc4ccccc4C3)nccc2c1C [Example 591, 2-ethyl-3-methyl-7-(1,2,3,4-tetrahydroisoquinolin-2-yl)-1H-pyrrolo[2,3-c]pyridine] | 499
14 | CCc1c(C)c2ccnc(N3CCc4ccccc4C3)c2n1C [Example 609, 2-ethyl-1,3-dimethyl-7-(1,2,3,4-tetrahydroisoquinolin-2-yl)-1H-pyrrolo[2,3-c]pyridine hydrochloride] | 379
15 | Cc1cc2ccnc(N3CCc4ccccc4C3)c2n1Cc1cccc(F)c1 [Example 613, 2-[1-(3-fluorobenzyl)-2-methyl-1H-pyrrolo[2,3-c]pyridin-7-yl]-1,2,3,4-tetrahydroisoquinoline hydrochloride] | 375
16 | Cc1c(CO)c2ccnc(N3CCc4ccccc4C3)c2n1Cc1cccc(F)c1 [Example 617, [7-(3,4-dihydro-1H-isoquinolin-2-yl)-1-(3-fluorobenzyl)-2-methyl-1H-pyrrolo[2,3-c]pyridin-3-yl]-methanol hydrochloride] | 65
17 | Cc1c(CC#N)c2ccnc(N3CCc4ccccc4C3)c2n1Cc1ccccc1 [Example 624, [1-benzyl-7-(3,4-dihydro-1H-isoquinolin-2-yl)-2-methyl-1H -pyrrolo[2,3-c]pyridin-3-yl]-acetonitrile hydrochloride] | 10
18 | Cc1c(C)n(Cc2cccc(F)c2)c2c(N3CCc4ccccc4C3)nc(Cl)cc12 [Example 657, 5-chloro-[1-(3-fluorobenzyl)-7-(1,2,3,4-tetrahydroisoquinolin-2-yl)]-2,3-dimethyl-1H-pyrrolo[2,3-c]pyridine hydrochloride] | 240
19 | C#CCn1c(C)c(C)c2cc(Cl)nc(N3CCc4ccccc4C3)c21 [Example 659, 2-[5-chloro-2,3-dimethyl-1-(prop-2-ynyl)-1H-pyrrolo[2,3-c]pyridin-7-yl]-1,2,3,4-tetrahydroisoquinoline] | 439
20 | C=CCCn1c(C)c(C)c2cc(C#N)nc(N3CCc4ccccc4C3)c21 [Example 683, 1-(but-3-enyl)-7-(3,4-dihydro-1H-isoquinolin-2-yl)-2,3-dimethyl-1H-pyrrolo[2,3-c]pyridin-5-carbonitrile] | 1560
21 | C=CCn1c(C)c(C)c2cc(C#N)nc(N3CCc4ccccc4C3)c21 [Example 684, 1-allyl-7-(3,4-dihydro-1H-isoquinolin-2-yl)-2,3-dimethyl-1H-pyrrolo[2,3-c]pyridin-5-carbonitrile] | 490
22 | Cc1c(C)n(Cc2cccc(Cl)c2)c2c(N3CCc4ccccc4C3)nc(C#N)cc12 [Example 689, 1-(3-chlorobenzyl)-7-(3,4-dihydro-1H-isoquinolin-2-yl)-2,3-dimethyl-1H-pyrrolo[2,3-c]pyridin-5-carbonitrile] | 331
23 | Cc1c(C)n(Cc2cccc(F)c2)c2c(N3CCc4ccccc4C3)nc(C#N)cc12 [Example 695, 7-(3,4-dihydro-1H-isoquinolin-2-yl)-1-(3-fluorobenzyl)-2,3-dimethyl-1H-pyrrolo[2,3-c]pyridin-5-carbonitrile] | 481
24 | CCCn1c(C)c(C)c2cc(C#N)nc(N3CCc4ccccc4C3)c21 [Example 697, 7-(3,4-dihydro-1H-isoquinolin-2-yl)-2,3-dimethyl-1-propyl-1H-pyrrolo[2,3-c]pyridin-5-carbonitrile] | 3200
25 | C=CCn1c(C)c(C)c2cc(C(=O)O)nc(N3CCc4ccccc4C3)c21 [Example 732, 1-allyl-7-(3,4-dihydro-1H-isoquinolin-2-yl)-2,3-dimethyl-1H-pyrrolo[2,3-c]pyridin-5-carboxylic acid] | 22
26 | Cc1c(C)n(Cc2ccccc2)c2c(N3CCc4ccccc4C3)nc(C(=O)O)cc12 [Example 733, 1-benzyl-7-(3,4-dihydro-1H-isoquinolin-2-yl)-2,3-dimethyl-1H-pyrrolo[2,3-c]pyridin-5-carboxylic acid] | 117
